Key:
Test in all cases: relative viability (nuclei count vs DMSO), 5 days (fraction); higher = more cells survive
LU99A = tested on: LU99A
In short: (§1)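 One day after seeding in 1536-well plates, lung cancer cell lines were dosed by pin tool. Dosing was either single-drug or a fixed anchor-drug dose plus five library-drug doses (not always all listed) in √10 steps. After 5 days, nuclei were stained in one fix-and-stain step and counted on 4× images, and relative viability is the nuclei count of treated wells over that of vehicle wells, given as the median of duplicate plates.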

HCC-366 = tested on: HCC-366
In short: as §1

PC-3 [JPC-3] = tested on: PC-3 [JPC-3]
In short: as §1

NCI-H2087 = tested on: NCI-H2087
In short: as §1

NCI-H3122 = tested on: NCI-H3122
In short: as §1

NCI-H1755 = tested on: NCI-H1755
In short: as §1

NCI-H1395 = tested on: NCI-H1395
In short: as §1

HCC-78 = tested on: HCC-78
In short: as §1

NCI-H1651 = tested on: NCI-H1651
In short: as §1

NCI-H2228 = tested on: NCI-H2228
In short: as §1

UMC-11 = tested on: UMC-11
In short: as §1

NCI-H460 = tested on: NCI-H460
In short: as §1

RERF-LC-KJ = tested on: RERF-LC-KJ
In short: as §1

LC-2-ad = tested on: LC-2-ad
In short: as §1

NCI-H1793 = tested on: NCI-H1793
In short: as §1

CAL-12T = tested on: CAL-12T
In short: as §1

ABC-1 = tested on: ABC-1
In short: as §1

LOU-NH91 = tested on: LOU-NH91
In short: as §1

NCI-H1734 = tested on: NCI-H1734
In short: as §1

NCI-H2170 = tested on: NCI-H2170
In short: as §1

NCI-H1944 = tested on: NCI-H1944
In short: as §1

NCI-H2405 = tested on: NCI-H2405
In short: as §1

SMILES: C=C1C(=O)O[C@@H](CCCCCCCC)[C@@H]1C(=O)O [C-75] + CS(=O)(=O)CCNCc1ccc(-c2ccc3ncnc(Nc4ccc(OCc5cccc(F)c5)c(Cl)c4)c3c2)o1 [Lapatinib] (partner 2 µM)
- relative viability (LU99A; first compound 0.08 µM): 1.1
- relative viability (LU99A; first compound 0.253 µM): 0.959
- relative viability (LU99A; first compound 0.8 µM): 0.808
- relative viability (LU99A; first compound 2.53 µM): 0.949
- relative viability (LU99A; first compound 8 µM): 0.87
- relative viability (HCC-366; first compound 0.08 µM): 1.04
- relative viability (HCC-366; first compound 0.253 µM): 1.19
- relative viability (HCC-366; first compound 0.8 µM): 1
- relative viability (HCC-366; first compound 8 µM): 0.872
- relative viability (PC-3 [JPC-3]; first compound 0.08 µM): 0.449
- relative viability (PC-3 [JPC-3]; first compound 0.253 µM): 0.528
- relative viability (PC-3 [JPC-3]; first compound 0.8 µM): 0.405
- relative viability (PC-3 [JPC-3]; first compound 2.53 µM): 0.485
- relative viability (PC-3 [JPC-3]; first compound 8 µM): 0.478
- relative viability (NCI-H2087; first compound 0.08 µM): 1.07
- relative viability (NCI-H2087; first compound 0.253 µM): 0.975
- relative viability (NCI-H2087; first compound 0.8 µM): 1.1
- relative viability (NCI-H2087; first compound 2.53 µM): 0.868
- relative viability (NCI-H2087; first compound 8 µM): 0.776
- relative viability (NCI-H3122; first compound 0.08 µM): 1.03
- relative viability (NCI-H3122; first compound 0.253 µM): 1.02
- relative viability (NCI-H3122; first compound 0.8 µM): 0.997
- relative viability (NCI-H3122; first compound 8 µM): 1.02
- relative viability (NCI-H1755; first compound 0.08 µM): 1.01
- relative viability (NCI-H1755; first compound 0.253 µM): 0.946
- relative viability (NCI-H1755; first compound 0.8 µM): 0.958
- relative viability (NCI-H1755; first compound 2.53 µM): 0.743
- relative viability (NCI-H1755; first compound 8 µM): 1.06
- relative viability (NCI-H1395; first compound 0.08 µM): 0.997
- relative viability (NCI-H1395; first compound 0.253 µM): 1.11
- relative viability (NCI-H1395; first compound 0.8 µM): 0.949
- relative viability (NCI-H1395; first compound 2.53 µM): 1.49
- relative viability (NCI-H1395; first compound 8 µM): 1.06
- relative viability (HCC-78; first compound 0.08 µM): 1.05
- relative viability (HCC-78; first compound 0.253 µM): 0.6
- relative viability (HCC-78; first compound 0.8 µM): 0.464
- relative viability (HCC-78; first compound 2.53 µM): 0.348
- relative viability (HCC-78; first compound 8 µM): 0.756
- relative viability (NCI-H1651; first compound 0.08 µM): 0.706
- relative viability (NCI-H1651; first compound 0.253 µM): 0.853
- relative viability (NCI-H1651; first compound 0.8 µM): 0.816
- relative viability (NCI-H1651; first compound 2.53 µM): 0.747
- relative viability (NCI-H1651; first compound 8 µM): 0.81
- relative viability (NCI-H2228; first compound 0.08 µM): 1.11
- relative viability (NCI-H2228; first compound 0.253 µM): 1.19
- relative viability (NCI-H2228; first compound 0.8 µM): 1.1
- relative viability (NCI-H2228; first compound 2.53 µM): 0.903
- relative viability (NCI-H2228; first compound 8 µM): 1.03
- relative viability (UMC-11; first compound 0.08 µM): 1.01
- relative viability (UMC-11; first compound 0.253 µM): 1.08
- relative viability (UMC-11; first compound 0.8 µM): 0.764
- relative viability (UMC-11; first compound 2.53 µM): 0.795
- relative viability (UMC-11; first compound 8 µM): 0.655
- relative viability (NCI-H460; first compound 0.08 µM): 0.951
- relative viability (NCI-H460; first compound 0.253 µM): 1.38
- relative viability (NCI-H460; first compound 0.8 µM): 0.847
- relative viability (NCI-H460; first compound 8 µM): 0.884
- relative viability (RERF-LC-KJ; first compound 0.08 µM): 0.826
- relative viability (RERF-LC-KJ; first compound 0.253 µM): 0.866
- relative viability (RERF-LC-KJ; first compound 0.8 µM): 0.863
- relative viability (RERF-LC-KJ; first compound 2.53 µM): 0.872
- relative viability (RERF-LC-KJ; first compound 8 µM): 0.966
- relative viability (LC-2-ad; first compound 0.08 µM): 0.982
- relative viability (LC-2-ad; first compound 0.253 µM): 0.919
- relative viability (LC-2-ad; first compound 0.8 µM): 0.898
- relative viability (LC-2-ad; first compound 8 µM): 1.01
- relative viability (NCI-H1793; first compound 0.08 µM): 0.635
- relative viability (NCI-H1793; first compound 0.253 µM): 0.785
- relative viability (NCI-H1793; first compound 0.8 µM): 0.493
- relative viability (NCI-H1793; first compound 2.53 µM): 0.483
- relative viability (NCI-H1793; first compound 8 µM): 0.713
- relative viability (CAL-12T; first compound 0.08 µM): 0.673
- relative viability (CAL-12T; first compound 0.253 µM): 0.863
- relative viability (CAL-12T; first compound 0.8 µM): 0.492
- relative viability (CAL-12T; first compound 2.53 µM): 0.604
- relative viability (CAL-12T; first compound 8 µM): 0.765
- relative viability (ABC-1; first compound 0.08 µM): 1.1
- relative viability (ABC-1; first compound 0.253 µM): 1.33
- relative viability (ABC-1; first compound 0.8 µM): 1.17
- relative viability (ABC-1; first compound 2.53 µM): 0.981
- relative viability (ABC-1; first compound 8 µM): 0.929
- relative viability (LOU-NH91; first compound 0.08 µM): 0.821
- relative viability (LOU-NH91; first compound 0.253 µM): 0.833
- relative viability (LOU-NH91; first compound 0.8 µM): 0.657
- relative viability (LOU-NH91; first compound 2.53 µM): 0.533
- relative viability (LOU-NH91; first compound 8 µM): 0.716
- relative viability (NCI-H1734; first compound 0.08 µM): 0.981
- relative viability (NCI-H1734; first compound 0.253 µM): 1.13
- relative viability (NCI-H1734; first compound 0.8 µM): 1.02
- relative viability (NCI-H1734; first compound 2.53 µM): 0.362
- relative viability (NCI-H1734; first compound 8 µM): 0.908
- relative viability (NCI-H2170; first compound 0.08 µM): 0.269
- relative viability (NCI-H2170; first compound 0.253 µM): 0.276
- relative viability (NCI-H2170; first compound 0.8 µM): 0.255
- relative viability (NCI-H2170; first compound 2.53 µM): 0.216
- relative viability (NCI-H2170; first compound 8 µM): 0.276
- relative viability (NCI-H1944; first compound 0.08 µM): 0.792
- relative viability (NCI-H1944; first compound 0.253 µM): 0.755
- relative viability (NCI-H1944; first compound 0.8 µM): 0.685
- relative viability (NCI-H1944; first compound 8 µM): 0.682
- relative viability (NCI-H2405; first compound 0.08 µM): 1.07
- relative viability (NCI-H2405; first compound 0.253 µM): 0.772
- relative viability (NCI-H2405; first compound 0.8 µM): 1
- relative viability (NCI-H2405; first compound 2.53 µM): 1.07
- relative viability (NCI-H2405; first compound 8 µM): 1.06

— the supplement of paper PMC10307832
